Data as given in ChEMBL document CHEMBL1130893, “Inhibition of HIV integrase by novel nucleotides bearing tricyclic bases” (Bioorg Med Chem Lett, 1998).

How the values were obtained:
[1] = target: T1, Human immunodeficiency virus type 1 integrase (Human immunodeficiency virus 1, UniProt Q7ZJM1); assay: Inhibitory activity against HIV integrase in the strand transfer step
[2] = target: T1, Human immunodeficiency virus type 1 integrase; assay: Inhibitory activity against HIV integrase in the 3' processing step

T1 sequence (Q7ZJM1 whole entry): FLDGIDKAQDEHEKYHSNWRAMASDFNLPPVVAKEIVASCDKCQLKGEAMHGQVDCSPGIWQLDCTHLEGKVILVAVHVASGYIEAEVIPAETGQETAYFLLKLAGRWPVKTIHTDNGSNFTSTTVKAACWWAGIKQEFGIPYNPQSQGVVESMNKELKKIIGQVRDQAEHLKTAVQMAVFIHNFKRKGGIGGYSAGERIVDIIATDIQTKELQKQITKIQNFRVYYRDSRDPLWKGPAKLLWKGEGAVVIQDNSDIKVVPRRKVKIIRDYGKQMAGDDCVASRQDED

IC50 [1]	IC50 [2]	SMILES
68 µM	–	Nc1ncnc2cc3c(cc12)ncn3C1COC(COP(=O)(O)O)C1 (stereo not given)
550 µM	750 µM	Nc1ncnc2cc3c(cc12)ncn3C1CCC(COP(=O)(O)O)O1 (stereo not given)
53 µM	75 µM	Nc1ncnc2c1ccc1ncn(C3COC(COP(=O)(O)O)C3)c12 (stereo not given)
